Measurements from patent US12077503B2, “Substituted cyclic amides and their use as herbicides” (FMC CORPORATION, priority 2015, dated 2024).

What was measured:
Type in all cases: in vivo
[1] = test system: ryegrass, Italian (Italian ryegrass, Lolium multiflorum); assay: Test A postemergence; settings: Lolium multiflorum, post-emergence, 240 h, Postemergence, read-out: Ryegrass, Italian plant response rating (0 to 100 scale); for pest or weed control at 125 g/ha: 125 g ai/ha, visual rating about 10 d after treatment; for pest or weed control at 31 g/ha: 31 g ai/ha, 0 is no effect, 100 is complete control
Procedure, shortened: (§1)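 Visual injury scores from 0, no effect, to 100, complete control, were assigned versus untreated controls roughly 10 d after treatment in the greenhouse. Test chemicals, formulated with surfactant in a non-phytotoxic solvent, were applied to planted seeds as a preemergence soil spray or postemergence to one- to two-leaf plants 2 to 10 cm tall, in loam–sand soil.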

[2] = test system: blackgrass (Alopecurus myosuroides); assay: Test A postemergence; settings: Alopecurus myosuroides, post-emergence, 240 h, Postemergence, read-out: Blackgrass plant response rating (0 to 100 scale); for pest or weed control at 125 g/ha: 125 g ai/ha, visual rating about 10 d after treatment; for pest or weed control at 31 g/ha: 31 g ai/ha, 0 is no effect, 100 is complete control
Procedure, shortened: as §1

[3] = test system: barnyardgrass (Echinochloa crus-galli); assay: Test A postemergence; settings: Echinochloa crus-galli, post-emergence, 240 h, Postemergence; for pest or weed control at 125 g/ha: 125 g ai/ha, visual rating about 10 d after treatment, read-out: Barnyardgrass plant response rating (0 to 100 scale, 0 no effect, 100 complete control); for pest or weed control at 31 g/ha: 31 g ai/ha, 0 is no effect, 100 is complete control, read-out: Barnyardgrass plant response rating (0 to 100 scale)
Procedure, shortened: as §1

[4] = test system: corn (Zea mays); assay: Test A postemergence; settings: Zea mays, post-emergence, 240 h, Postemergence, read-out: Corn plant response rating (0 to 100 scale); for plant injury at 125 g/ha: 125 g ai/ha, visual rating about 10 d after treatment; for plant injury at 31 g/ha: 31 g ai/ha, 0 is no effect, 100 is complete control
Procedure, shortened: as §1

[5] = test system: pigweed (Amaranthus retroflexus); assay: Test A postemergence; settings: Amaranthus retroflexus, post-emergence, 240 h, Postemergence, read-out: Pigweed plant response rating (0 to 100 scale); for pest or weed control at 125 g/ha: 125 g ai/ha, visual rating about 10 d after treatment; for pest or weed control at 31 g/ha: 31 g ai/ha, 0 is no effect, 100 is complete control
Procedure, shortened: as §1

[6] = test system: Galium (catchweed bedstraw, Galium aparine); assay: Test A postemergence; settings: Galium, post-emergence, 240 h, Postemergence, read-out: Galium plant response rating (0 to 100 scale); for pest or weed control at 125 g/ha: 125 g ai/ha, visual rating about 10 d after treatment; for pest or weed control at 31 g/ha: 31 g ai/ha, 0 is no effect, 100 is complete control
Procedure, shortened: as §1

[7] = test system: wheat (Triticum aestivum); assay: Test A postemergence; settings: Triticum aestivum, post-emergence, 240 h, Postemergence, read-out: Wheat plant response rating (0 to 100 scale); for plant injury at 125 g/ha: 125 g ai/ha, visual rating about 10 d after treatment; for plant injury at 31 g/ha: 31 g ai/ha, 0 is no effect, 100 is complete control
Procedure, shortened: as §1

[8] = test system: giant foxtail (Setaria faberii); assay: Test A postemergence; settings: Setaria faberi, post-emergence, 240 h, Postemergence, read-out: Foxtail, Giant plant response rating (0 to 100 scale); for pest or weed control at 125 g/ha: 125 g ai/ha, visual rating about 10 d after treatment; for pest or weed control at 31 g/ha: 31 g ai/ha, 0 is no effect, 100 is complete control
Procedure, shortened: as §1

[9] = test system: Kochia (Kochia scoparia); assay: Test A postemergence; settings: Bassia scoparia, post-emergence, 240 h, Postemergence, read-out: Kochia plant response rating (0 to 100 scale); for pest or weed control at 125 g/ha: 125 g ai/ha, visual rating about 10 d after treatment; for pest or weed control at 31 g/ha: 31 g ai/ha, 0 is no effect, 100 is complete control
Procedure, shortened: as §1

[10] = test system: ragweed (common ragweed, Ambrosia elatior); assay: Test A postemergence; settings: Ambrosia artemisiifolia, post-emergence, 240 h, Postemergence, read-out: Ragweed plant response rating (0 to 100 scale); for pest or weed control at 125 g/ha: 125 g ai/ha, visual rating about 10 d after treatment; for pest or weed control at 31 g/ha: 31 g ai/ha, 0 is no effect, 100 is complete control
Procedure, shortened: as §1

[11] = test system: ryegrass, Italian (Italian ryegrass, Lolium multiflorum); assay: Test A preemergence; settings: Lolium multiflorum, pre-emergence, 240 h, 0 to 100 scale where 0 is no effect and 100 is complete control, read-out: Ryegrass, Italian plant response rating; for pest or weed control at 31 g/ha: 31 g ai/ha, Preemergence; for pest or weed control at 125 g/ha: 125 g ai/ha, preemergence, visual injury rating, approximately 10 d
Procedure, shortened: as §1

[12] = test system: barnyardgrass (Echinochloa crus-galli); assay: Test A preemergence; settings: Echinochloa crus-galli, pre-emergence, 240 h, 0 to 100 scale where 0 is no effect and 100 is complete control, read-out: Barnyardgrass plant response rating; for pest or weed control at 31 g/ha: 31 g ai/ha, Preemergence; for pest or weed control at 125 g/ha: 125 g ai/ha, preemergence, visual injury rating, approximately 10 d
Procedure, shortened: as §1

[13] = test system: pigweed (Amaranthus retroflexus); assay: Test A preemergence; settings: Amaranthus retroflexus, pre-emergence, 240 h, 0 to 100 scale where 0 is no effect and 100 is complete control, read-out: Pigweed plant response rating; for pest or weed control at 31 g/ha: 31 g ai/ha, Preemergence; for pest or weed control at 125 g/ha: 125 g ai/ha, preemergence, visual injury rating, approximately 10 d
[14] = test system: giant foxtail (Setaria faberii); assay: Test A preemergence; settings: Setaria faberi, pre-emergence, 240 h, 0 to 100 scale where 0 is no effect and 100 is complete control, read-out: Foxtail, Giant plant response rating; for pest or weed control at 31 g/ha: 31 g ai/ha, Preemergence; for pest or weed control at 125 g/ha: 125 g ai/ha, preemergence, visual injury rating, approximately 10 d
Procedure, shortened: as §1

[15] = test system: Kochia (Kochia scoparia); assay: Test A preemergence; settings: Bassia scoparia, pre-emergence, 240 h, 0 to 100 scale where 0 is no effect and 100 is complete control, read-out: Kochia plant response rating; for pest or weed control at 31 g/ha: 31 g ai/ha, Preemergence; for pest or weed control at 125 g/ha: 125 g ai/ha, preemergence, visual injury rating, approximately 10 d
Procedure, shortened: as §1

[16] = test system: ragweed (common ragweed, Ambrosia elatior); assay: Test A preemergence; settings: Ambrosia artemisiifolia, pre-emergence, 240 h, 0 to 100 scale where 0 is no effect and 100 is complete control, read-out: Ragweed plant response rating; for pest or weed control at 31 g/ha: 31 g ai/ha, Preemergence; for pest or weed control at 125 g/ha: 125 g ai/ha, preemergence, visual injury rating, approximately 10 d
Procedure, shortened: as §1

[17] = test system: barnyardgrass (Echinochloa crus-galli); assay: Test B flooded paddy test; settings: Echinochloa crus-galli, 250 g ai/ha, Flood; 0 to 100 scale where 0 is no effect and 100 is complete control; read-out: Barnyardgrass plant response rating
Procedure, shortened: (§2)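 Visual ratings (0 none to 100 complete control) are relative to untreated plants, taken 13–15 d after treatment in a greenhouse. Test material went straight into floodwater standing 3 cm above the soil, kept constant, on plants at the 2-leaf stage.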

[18] = test system: sedge, umbrella (small-flower umbrella sedge, Cyperus difformis); assay: Test B flooded paddy test; settings: Cyperus difformis, 250 g ai/ha, Flood; 0 to 100 scale where 0 is no effect and 100 is complete control; read-out: Sedge, Umbrella plant response rating
Procedure, shortened: as §2

[19] = test system: ducksalad (Heteranthera limosa); assay: Test B flooded paddy test; settings: Heteranthera limosa, 250 g ai/ha, Flood; 0 to 100 scale where 0 is no effect and 100 is complete control; read-out: Ducksalad plant response rating
Procedure, shortened: as §2

[20] = test system: rice (Oryra sativa); assay: Test B flooded paddy test; settings: Oryza sativa, 250 g ai/ha, Flood; 0 to 100 scale where 0 is no effect and 100 is complete control; read-out: Rice plant response rating
Procedure, shortened: as §2

O=C(Nc1cccc(F)c1F)[C@H]1C(=O)N(CC(F)F)C[C@@H]1c1cccc(C(F)(F)F)c1 [Compound 1296]
pest or weed control at 125 g/ha [1]: 0% | pest or weed control at 31 g/ha [1]: 0% | pest or weed control at 125 g/ha [2]: 0% | pest or weed control at 31 g/ha [2]: 0% | pest or weed control at 125 g/ha [3]: 30% | pest or weed control at 31 g/ha [3]: 0% | plant injury at 125 g/ha [4]: 0% | plant injury at 31 g/ha [4]: 0% | pest or weed control at 125 g/ha [5]: 0% | pest or weed control at 31 g/ha [5]: 0% | pest or weed control at 125 g/ha [6]: 0% | pest or weed control at 31 g/ha [6]: 0% | plant injury at 125 g/ha [7]: 0% | plant injury at 31 g/ha [7]: 0% | pest or weed control at 125 g/ha [8]: 30% | pest or weed control at 31 g/ha [8]: 0% | pest or weed control at 125 g/ha [9]: 0% | pest or weed control at 31 g/ha [9]: 0% | pest or weed control at 125 g/ha [10]: 0% | pest or weed control at 31 g/ha [10]: 0% | pest or weed control at 31 g/ha [11]: 0% | pest or weed control at 125 g/ha [11]: 0% | pest or weed control at 31 g/ha [12]: 20% | pest or weed control at 125 g/ha [12]: 70% | pest or weed control at 31 g/ha [13]: 0% | pest or weed control at 125 g/ha [13]: 0% | pest or weed control at 31 g/ha [14]: 20% | pest or weed control at 125 g/ha [14]: 60% | pest or weed control at 31 g/ha [15]: 0% | pest or weed control at 125 g/ha [15]: 0% | pest or weed control at 31 g/ha [16]: 0% | pest or weed control at 125 g/ha [16]: 0% | pest or weed control at 250 g/ha [17]: 15% | pest or weed control at 250 g/ha [18]: 0% | pest or weed control at 250 g/ha [19]: 0% | pest or weed control at 250 g/ha [20]: 30%

CN1C[C@H](c2csc3c2CCCC3)[C@@H](C(=O)Nc2cccc(F)c2F)C1=O [Compound 1276]
pest or weed control at 125 g/ha [1]: 0% | pest or weed control at 31 g/ha [1]: 0% | pest or weed control at 125 g/ha [2]: 0% | pest or weed control at 31 g/ha [2]: 0% | pest or weed control at 125 g/ha [3]: 100% | pest or weed control at 31 g/ha [3]: 70% | plant injury at 125 g/ha [4]: 0% | plant injury at 31 g/ha [4]: 0% | pest or weed control at 125 g/ha [5]: 0% | pest or weed control at 31 g/ha [5]: 0% | pest or weed control at 125 g/ha [6]: 0% | pest or weed control at 31 g/ha [6]: 0% | plant injury at 125 g/ha [7]: 0% | plant injury at 31 g/ha [7]: 0% | pest or weed control at 125 g/ha [8]: 60% | pest or weed control at 31 g/ha [8]: 30% | pest or weed control at 125 g/ha [9]: 0% | pest or weed control at 31 g/ha [9]: 0% | pest or weed control at 125 g/ha [10]: 0% | pest or weed control at 31 g/ha [10]: 0% | pest or weed control at 31 g/ha [11]: 0% | pest or weed control at 125 g/ha [11]: 30% | pest or weed control at 31 g/ha [12]: 90% | pest or weed control at 125 g/ha [12]: 100% | pest or weed control at 31 g/ha [13]: 0% | pest or weed control at 125 g/ha [13]: 30% | pest or weed control at 31 g/ha [14]: 90% | pest or weed control at 125 g/ha [14]: 100% | pest or weed control at 31 g/ha [15]: 30% | pest or weed control at 125 g/ha [15]: 60% | pest or weed control at 31 g/ha [16]: 20% | pest or weed control at 125 g/ha [16]: 80% | pest or weed control at 250 g/ha [17]: 65% | pest or weed control at 250 g/ha [18]: 0% | pest or weed control at 250 g/ha [19]: 90% | pest or weed control at 250 g/ha [20]: 25%
